1 compound from patent US20100197688A1, “EPHA4 RTK INHIBITORS FOR TREATMENT OF NEUROLOGICAL AND NEURODEGENERATIVE DISORDERS AND CANCER” (priority 2008, published 2010) can be followed below.

The IC50 is the concentration needed to halve the response being measured. A low value points to greater potency.

The subject of experiment [1] is Primary Rat cortical astrocytes. Kind of experiment: Proliferation assay (cell confluence), astrocytes. To be noted: at 5 μM. Type of experiment: cell-based. Here is the method: C2C12 were plated at 15,000 cells per well and then differentiated into myotubes with DMEM supplemented with 2% horse serum for 3 days in 24 well ImageLock™ plate (Essen Instruments, Mich., USA). Primary Rat cortical astrocytes were plated at 3.105 cells/ml onto 24 well ImageLock™ plate.
Cells were placed into the IncuCyte™ at 37° C. and 95% CO2/5% O2, for two to three days. During this time, the cells within each well were repeatedly imaged at fixed time intervals (every three hours). The IncuCyte™ system automatically monitored the proliferation using the percentage of confluence. Percent of confluence can be graphed over time to evaluate the characteristics of proliferation in the presence of pharmacological agents.
[…] The percentage of reduction of cell confluence was calculated from the AUCs in comparison with the AUCs of the control wells (1% DMSO).

A further experiment has as its target T1, P38alpha kinase (Homo sapiens, UniProt Q16539).
T1 construct: purchased Dundee Library
Nature of the experiment: P38 alpha kinase counterscreen assay (Caliper). Type of experiment: biochemical. The method, then:
A counterscreen assay was performed to measure p38alpha kinase activity using the Caliper System (LifeSciences, USA). This system is based on the microfluidic technology. P38 alpha kinase activity was measured by the shift in mobility of the non-phosphorylated form when separated by electrophoresis and detected via LED (Light Emitting Diode) induced fluorescence. This assay was automated following the manufacturer's protocol. P38alpha kinase and its substrate GST-MK2 were bought from Dundee Library.
Compounds were titrated, concentration-response curves were represented and the concentrations for 50% inhibition (IC50) were calculated.
(In general: The purpose of a counterscreen is to sort out artefacts and off-target activity.)

T1 sequence (Q16539 whole entry): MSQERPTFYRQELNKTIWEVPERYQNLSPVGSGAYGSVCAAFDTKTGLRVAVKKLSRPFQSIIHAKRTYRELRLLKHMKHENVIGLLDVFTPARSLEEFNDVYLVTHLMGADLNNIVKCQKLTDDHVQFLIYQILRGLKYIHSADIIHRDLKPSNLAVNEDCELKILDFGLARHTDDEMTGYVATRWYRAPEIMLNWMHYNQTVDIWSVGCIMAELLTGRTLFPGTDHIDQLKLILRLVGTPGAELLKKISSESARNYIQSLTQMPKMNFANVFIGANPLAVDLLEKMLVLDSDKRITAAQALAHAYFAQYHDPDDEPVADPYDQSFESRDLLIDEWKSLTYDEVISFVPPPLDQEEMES

As to `Cc1ccc(NC(=O)c2cccc(C(F)(F)F)c2)cc1-c1ccc(O)c(NC=O)c1` [Example 133], the “% Reduction of Confluence Astrocytes” value in experiment [1] is recorded as 28.2% at 5 μM. Further, half-maximal inhibition at P38alpha kinase (IC50) was put at 6.9 µM.
